Measured values from patent US20260132129A1 (Genesis Therapeutics, Inc., priority 2022, published 2026).
pIC50: −log10 of the molar value.

Molecular target: T1, PI3Kα H1047R (T47D cells) (Homo sapiens, UniProt P42336, H1047R)
T1 construct: endogenous in cells; host or cells: T47D cells
Assay: PI3Kα cellular assay: pAKT HTRF in T47D cells after EGF stimulation
Type: cell-based
Settings: for pIC50: T47D cells (PI3Kα H1047R), pAKT S473 HTRF, EGF stimulation; for T47D pAKT S473 HTRF IC50 (H1047R): T47D (H1047R) selectivity over SKBR3 (WT): selectivity of T47D (H1047R) over SKBR3 (WT) pAKT IC50
How it was run: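 pAKT read by HTRF in lysates of EGF-stimulated (20 ng/mL, 10 min) T47D H1047R cells. Before stimulation, serum-starved cells (16 h) received compound for 1 h at 37 °C, dosed from 10,000 nM down to 0.5 nM in 3-fold steps.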

T1 sequence (P42336 whole entry H1047R): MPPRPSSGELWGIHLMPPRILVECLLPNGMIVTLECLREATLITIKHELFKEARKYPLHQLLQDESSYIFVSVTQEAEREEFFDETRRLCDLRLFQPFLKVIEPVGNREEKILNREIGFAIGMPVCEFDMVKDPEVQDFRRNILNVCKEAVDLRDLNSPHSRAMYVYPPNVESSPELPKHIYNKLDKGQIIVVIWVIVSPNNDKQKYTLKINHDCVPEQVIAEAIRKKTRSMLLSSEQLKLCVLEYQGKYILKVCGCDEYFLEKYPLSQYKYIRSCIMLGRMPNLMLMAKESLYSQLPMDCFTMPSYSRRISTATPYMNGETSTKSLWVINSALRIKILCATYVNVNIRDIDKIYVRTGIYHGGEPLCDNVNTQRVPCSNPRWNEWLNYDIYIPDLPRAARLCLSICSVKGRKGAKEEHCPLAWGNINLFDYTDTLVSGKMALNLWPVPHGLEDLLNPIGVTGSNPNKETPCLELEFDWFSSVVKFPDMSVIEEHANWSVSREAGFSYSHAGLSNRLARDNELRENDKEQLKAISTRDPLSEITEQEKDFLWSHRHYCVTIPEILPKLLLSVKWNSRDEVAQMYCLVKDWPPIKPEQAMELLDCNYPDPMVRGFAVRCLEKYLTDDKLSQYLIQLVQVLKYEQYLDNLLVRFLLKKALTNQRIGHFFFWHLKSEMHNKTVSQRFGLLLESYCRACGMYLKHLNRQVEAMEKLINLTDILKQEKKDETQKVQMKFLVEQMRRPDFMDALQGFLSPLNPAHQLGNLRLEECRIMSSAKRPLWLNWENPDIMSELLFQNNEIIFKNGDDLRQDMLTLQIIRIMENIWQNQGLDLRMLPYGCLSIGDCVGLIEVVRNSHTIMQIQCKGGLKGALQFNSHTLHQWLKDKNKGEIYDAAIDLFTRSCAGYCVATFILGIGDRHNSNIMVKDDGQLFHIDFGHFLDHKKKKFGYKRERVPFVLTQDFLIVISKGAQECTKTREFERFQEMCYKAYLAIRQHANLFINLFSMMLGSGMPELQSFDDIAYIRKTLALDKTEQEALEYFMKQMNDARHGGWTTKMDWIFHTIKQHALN
T1 sequence (P27986 whole entry partner): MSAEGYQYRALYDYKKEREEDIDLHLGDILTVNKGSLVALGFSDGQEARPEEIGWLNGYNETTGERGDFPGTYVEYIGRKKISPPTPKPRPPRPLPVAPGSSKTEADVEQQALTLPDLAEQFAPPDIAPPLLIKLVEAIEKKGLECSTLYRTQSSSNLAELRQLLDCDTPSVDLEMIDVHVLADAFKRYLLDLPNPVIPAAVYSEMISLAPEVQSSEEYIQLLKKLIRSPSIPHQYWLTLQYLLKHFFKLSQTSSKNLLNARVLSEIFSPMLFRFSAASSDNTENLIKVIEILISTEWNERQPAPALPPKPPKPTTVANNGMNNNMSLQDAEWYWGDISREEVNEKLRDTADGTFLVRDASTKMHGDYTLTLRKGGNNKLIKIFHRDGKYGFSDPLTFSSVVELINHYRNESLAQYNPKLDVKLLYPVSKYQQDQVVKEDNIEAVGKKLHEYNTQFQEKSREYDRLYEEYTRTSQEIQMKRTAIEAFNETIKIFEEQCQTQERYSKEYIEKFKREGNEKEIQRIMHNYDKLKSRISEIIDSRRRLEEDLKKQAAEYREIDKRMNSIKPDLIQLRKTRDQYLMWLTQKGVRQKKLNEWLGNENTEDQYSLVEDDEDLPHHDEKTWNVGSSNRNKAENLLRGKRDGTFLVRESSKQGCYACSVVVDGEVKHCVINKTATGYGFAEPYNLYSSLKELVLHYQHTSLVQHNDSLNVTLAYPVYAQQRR

| SMILES | pIC50 | T47D pAKT S473 HTRF IC50 (H1047R): T47D (H1047R) selectivity over SKBR3 (WT) |
| --- | --- | --- |
| Cc1cc([C@@H](C)Nc2ccccc2C(=O)O)c2nc(N3CC4CC(F)(F)CC4C3)c(C)c(=O)n2c1 (some centres unmarked) [Compound 849] | 6.30 to 7.00 | A (A denotes >20-fold) |
| Cc1cc([C@H](C)Nc2ccccc2C(=O)O)c2nc(N3CC4CC(F)(F)CC4C3)c(C)c(=O)n2c1 (some centres unmarked) [Compound 850] | < 5.70 | C (C denotes ≤5-fold) |
| Cc1cc([C@@H](C)Nc2ccccc2C(=O)O)c2nc(-c3ccc4c(c3)COC4)cc(=O)n2c1 [Compound 851] | > 7.00 | A (A denotes >20-fold) |
| Cc1cc([C@H](C)Nc2ccccc2C(=O)O)c2nc(-c3ccc4c(c3)COC4)cc(=O)n2c1 [Compound 852] |  | C (C denotes ≤5-fold) |
| Cc1cc([C@@H](C)Nc2ccccc2C(=O)O)c2nc(-c3ccc4c(c3)CC(F)(F)C4)c(C)c(=O)n2c1 [Compound 853] | > 7.00 | A (A denotes >20-fold) |
| Cc1cc([C@H](C)Nc2ccccc2C(=O)O)c2nc(-c3ccc4c(c3)CC(F)(F)C4)cc(=O)n2c1 [Compound 854] | < 5.70 |  |
| Cc1cc(C(C)Nc2ccccc2C(=O)O)c2nc(-c3ccc4c(n3)c(C)nn4C)cc(=O)n2c1 (centres unmarked) [Compound 858] | 6.30 to 7.00 | A (A denotes >20-fold) |
| Cc1cc(C(C)Nc2ccccc2C(=O)O)c2nc(-c3ccc4c(n3)c(C)nn4C)c(C)c(=O)n2c1 (centres unmarked) [Compound 859] | 6.30 to 7.00 | A (A denotes >20-fold) |
| COc1cccc(NC(C)c2cc(C)cn3c(=O)cc(N4Cc5ccccc5C4)nc23)c1CO (centres unmarked) [Compound 865] | < 5.70 | C (C denotes ≤5-fold) |
| Cc1cc([C@@H](C)Nc2ccccc2C(=O)O)c2nc(N3C[C@H](C)C[C@H](C(F)F)C3)cc(=O)n2c1 [Compound 868] | 5.70 to 6.30 | B (B denotes 20-fold≥value>5-fold) |
| Cc1cc(C(C)Nc2ccccc2C(=O)O)c2nc(-c3ccc4c(c3)c(N)nn4C3CC3)cc(=O)n2c1 (centres unmarked) [Compound 870] | 6.30 to 7.00 | A (A denotes >20-fold) |
| C=CC(=O)Nc1ccc(C(=O)O)c(N[C@H](C)c2cc(C)cn3c(=O)cc(N4CCOCC4)nc23)c1 [Compound 872] | < 5.70 | C (C denotes ≤5-fold) |
| C=CC(=O)Nc1ccc(C(=O)O)c(N[C@@H](C)c2cc(C)cn3c(=O)cc(N4CCOCC4)nc23)c1 [Compound 873] | < 5.70 | C (C denotes ≤5-fold) |
| Cc1cc([C@@H](C)Nc2ccccc2-c2ccnnc2)c2nc(N3Cc4ccccc4C3)c(C3CC3)c(=O)n2c1 [Compound 874] | < 5.70 |  |
| Cc1cc([C@H](C)Nc2ccccc2-c2ccnnc2)c2nc(N3Cc4ccccc4C3)c(C3CC3)c(=O)n2c1 [Compound 875] | > 7.00 | A (A denotes >20-fold) |
| Cc1cc([C@@H](C)NCc2cccnn2)c2nc(N3Cc4ccccc4C3)cc(=O)n2c1 [Compound 876] | < 5.70 | C (C denotes ≤5-fold) |
| Cc1cc(C(C)Nc2ccccc2-c2nnn[nH]2)c2nc(N3Cc4ccccc4C3)cc(=O)n2c1 (centres unmarked) [Compound 877] | 6.30 to 7.00 | A (A denotes >20-fold) |
| Cc1cc(C(C)Nc2ccccc2C(=O)O)c2nc(-c3ccc4c(c3)c(C)nn4C3CC3)cc(=O)n2c1 (centres unmarked) [Compound 890] | > 7.00 | A (A denotes >20-fold) |
| CC(Nc1ccccc1C(=O)O)c1cc(C(F)(F)F)cn2c(=O)cc(N3C[C@@H](C)O[C@@H](C)C3)nc12 (some centres unmarked) [Compound 898] |  | A (A denotes >20-fold) |
| Cc1cc(C(C)Nc2ccccc2C(=O)O)c2nc(C3C[C@@H](C)O[C@@H](C)C3)c(C)c(=O)n2c1 (some centres unmarked) [Compound 901] |  | A (A denotes >20-fold) |
| Cc1cc([C@H](C)Nc2ccccc2C(=O)O)c2nc(-c3ccc4c(c3)c(C)cn4C)c(C)c(=O)n2c1 [Compound 903] | 5.70 to 6.30 | B (B denotes 20-fold≥value>5-fold) |

| SMILES | pIC50 | T47D pAKT S473 HTRF IC50 (H1047R): T47D (H1047R) selectivity over SKBR3 (WT) |
| --- | --- | --- |
| Cc1cc(C(C)Nc2ccccc2C(=O)O)c2nc(N3CC4(CCOCC4)C3)c(C)c(=O)n2c1 (centres unmarked) [Compound 904] | 6.30 to 7.00 | A (A denotes >20-fold) |
| Cc1cc([C@@H](C)N[C@@H]2CCCC[C@@H]2C(=O)O)c2nc(N3CCOCC3)cc(=O)n2c1 [Compound 905] | < 5.70 | C (C denotes ≤5-fold) |
| Cc1cc([C@H](C)N[C@@H]2CCCC[C@@H]2C(=O)O)c2nc(N3CCOCC3)cc(=O)n2c1 [Compound 906] | < 5.70 | C (C denotes ≤5-fold) |
| Cc1c(N2C[C@@H](C)O[C@@H](C)C2)nc2c([C@@H](C)Nc3ccccc3C(=O)O)cc(C(F)(F)F)cn2c1=O [Compound 907] |  | C (C denotes ≤5-fold) |
| Cc1cc([C@H](C)Nc2ccccc2-c2ccnnc2)c2nc(N3Cc4ccccc4C3)c(C)c(=O)n2c1 [Compound 909] | < 5.70 | C (C denotes ≤5-fold) |
| Cc1cc([C@H](C)Nc2ccccc2C(=O)O)c2ncc(Cc3ccc(F)cc3)c(=O)n2c1 [Compound 914] | < 5.70 | C (C denotes ≤5-fold) |
| Cc1cc(C(C)Nc2ccccc2C(=O)O)c2nc(N3C[C@@H](C)O[C@@H](C)C3)c(C)c(=O)n2c1 (some centres unmarked) [Compound 915] | 6.30 to 7.00 | A (A denotes >20-fold) |
| Cc1cc([C@H](C)Nc2ccccc2C(=O)O)c2nc(N3CC4(CCNCC4)C3)c(C)c(=O)n2c1 [Compound 917] |  | C (C denotes ≤5-fold) |
| Cc1cc(C(C)Nc2cccc3oc(=O)[nH]c23)c2nc(N3CCOCC3)cc(=O)n2c1 (centres unmarked) [Compound 918] | < 5.70 | C (C denotes ≤5-fold) |
| Cc1cc([C@H](C)Nc2ccccc2C(=O)O)c2nc(-c3ccc4c(c3)c(N(C)C)nn4C)c(C)c(=O)n2c1 [Compound 920] | < 5.70 | C (C denotes ≤5-fold) |
| CC(Nc1ccccc1C(=O)O)c1cc(C(F)(F)F)cn2c(=O)cc(N3Cc4ccccc4C3)nc12 (centres unmarked) [Compound 921] | < 5.70 | C (C denotes ≤5-fold) |
| CC(Nc1ccccc1C(=O)O)c1cc(C(F)(F)F)cn2c(=O)cc(N3Cc4ccccc4C3)nc12 (centres unmarked) [Compound 922] | > 7.00 | A (A denotes >20-fold) |
| Cc1cc([C@@H](C)Nc2ccccc2C(=O)O)c2nc(-c3ccc4c(C)n[nH]c4c3)cc(=O)n2c1 [Compound 923] |  | B (B denotes 20-fold≥value>5-fold) |
| Cc1cc([C@@H](C)Nc2ccccc2C(=O)O)c2nc(C3C[C@@H](C)O[C@@H](C)C3)cc(=O)n2c1 (some centres unmarked) [Compound 924] | 6.30 to 7.00 | A (A denotes >20-fold) |
| Cc1cc([C@H](C)Nc2ccccc2C(=O)O)c2nc(C3C[C@@H](C)O[C@@H](C)C3)cc(=O)n2c1 (some centres unmarked) [Compound 925] | 5.70 to 6.30 | B (B denotes 20-fold≥value>5-fold) |
| Cc1cc(C(C)Nc2ccccc2C(=O)C(F)(F)F)c2nc(N3Cc4ccccc4C3)c(C)c(=O)n2c1 (centres unmarked) [Compound 926] | < 5.70 | C (C denotes ≤5-fold) |
| Cc1cc([C@@H](C)Nc2ccccc2C(=O)O)c2nc(-c3ccc4c(C)nn(C)c4c3)c(C)c(=O)n2c1 [Compound 927] | > 7.00 | A (A denotes >20-fold) |
| Cc1cc([C@H](C)Nc2ccccc2C(=O)O)c2nc(-c3ccc4c(C)nn(C)c4c3)c(C)c(=O)n2c1 [Compound 928] | < 5.70 | C (C denotes ≤5-fold) |
| Cc1cc(C(C)CNc2ccccc2C(=O)O)c2nc(N3CCOCC3)cc(=O)n2c1 (centres unmarked) [Compound 929] | < 5.70 | C (C denotes ≤5-fold) |
| Cc1cc(C(C)Nc2cccc(CO)c2C(=O)O)c2nc(-c3ccc4c(c3)c(C)nn4C)cc(=O)n2c1 (centres unmarked) [Compound 933] | < 5.70 | C (C denotes ≤5-fold) |
